Experimental data published in patent US9193729B2, “Inhibiting transient receptor potential ion channel TRPA1” (Cubist Pharmaceuticals, Inc., priority 2011, dated 2015).
“Also recorded” adds a separate entry of the source.

Tested on: incisional spontaneous pain
Assay: Surgical incision pain model (Brennan Surgical Model)
Format: in vivo, rat
Settings: 60 mg/kg i.p. vs ketoprofen (2 doses of 2 mg/kg intraperitoneally)
Description: The compound of Formula (Ia), the comparator compound of Formula (III) and ketoprofen were tested by the incisional pain test method reported in Brennan et al., Pain, 1996 March; 64(3):493-501 incorporated herein by reference in its entirety. Briefly, in rats under anesthesia, a 1 cm incision through skin and underlying muscle is made in the bottom of one hind paw. The incision is sutured closed and the animals allowed to regain consciousness in their home cage before being placed on a special mesh rack. The blinded observer subjectively assesses and records each animal's pain score every 5 minutes for 1 hour. Pain scores are assigned as follows: Score of 0=Injured paw is held flat on the rack and is bearing weight (=uninjured paw); 1=Injured paw is slightly lifted from the rack but is bearing some weight; 2=Injured paw is flat but is bearing no weight, or heel is lifted high off the rack with only toes touching. At the end of each hour, pain scores are added up and the final score recorded ([…]). In a typical study the efficacy of the drug treatment is determined by comparing the cumulative guarding scores at 1-2 and 3-4 hours following surgical injury to the cumulative guarding scores of animals that received the vehicle.

C[C@H]1CCCN1c1ncc(-c2cccc(NC(=O)Cn3cnc4c3c(=O)n(C)c(=O)n4C)n2)cn1 [Formula (Ia)]
reduction of spontaneous pain compared with ketoprofen: equivalent to ketoprofen; also recorded: better than ketoprofen
